The record followed here is US12252524B2, “GIP/GLP1 co-agonist compounds” (Eli Lilly and Company, priority 2018, dated 2025).

As usually defined, the Ki is the dissociation constant of the complex between target and ligand, obtained from inhibition or displacement. The EC50 is the concentration giving half of the maximal effect.

Numbered stars: 1 amine (or outer) side, 2 acyl side, 3 side chain; on linkers, the order of the positions; unused ones are H or OH. Square brackets hold non-standard residues; d marks the D form. Side chains are listed from the residue outwards. Peptide text beside a SMILES is read from it. * marks the point of attachment. C18 diacid = O=C(O)CCCCCCCCCCCCCCCCC(=O)*; γGlu = O=C(O)[C@H](CCC(=O)[*:2])N[*:1]; AEEA = NCCOCCOCC(=O)O; Aib = CC(C)(N)C(=O)O A value given as a limit tells only on which side of the number the result lay.

One experiment deals with human GLP-1R (Homo sapiens, UniProt P43220). Nature of the experiment: [125I]-GLP-1 binding (SPA), human GLP-1 receptor. As to conditions: read-out: hGLP1R Ki, (nM) (SEM, n). Further details: expressed in transfected cells; crude membranes. Put shortly: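 Membranes: hypotonic lysis (50 mM Tris HCl, pH 7.5, protease inhibitors), Potter-Elvehjem homogenization, high-speed pellet (35000×g 1 h or 25000×g 30 min, 4° C.). Buffer: 25 mM HEPES pH 7.4, 2.5 mM CaCl2, 1 mM MgCl2. Four-parameter IC50 fit; Ki as geometric mean ± SEM.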
Sequence of human GLP-1R (P43220 24-463): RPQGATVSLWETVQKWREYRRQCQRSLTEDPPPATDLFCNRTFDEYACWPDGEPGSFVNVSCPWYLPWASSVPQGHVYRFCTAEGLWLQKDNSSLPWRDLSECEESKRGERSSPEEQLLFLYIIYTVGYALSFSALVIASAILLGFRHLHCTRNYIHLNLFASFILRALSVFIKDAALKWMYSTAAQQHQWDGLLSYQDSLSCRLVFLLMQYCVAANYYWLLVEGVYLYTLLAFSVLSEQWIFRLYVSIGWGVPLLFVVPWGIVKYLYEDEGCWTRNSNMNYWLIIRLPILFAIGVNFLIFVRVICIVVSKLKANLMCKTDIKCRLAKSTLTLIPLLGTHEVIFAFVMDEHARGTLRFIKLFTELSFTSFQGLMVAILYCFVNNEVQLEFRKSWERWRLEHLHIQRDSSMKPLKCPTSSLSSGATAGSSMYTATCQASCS

The next experiment deals with T1, human Gcg receptor (Homo sapiens, UniProt P47871).
T1 construct: expressed in transfected cells; crude membranes
T1 sequence (P47871 26-477): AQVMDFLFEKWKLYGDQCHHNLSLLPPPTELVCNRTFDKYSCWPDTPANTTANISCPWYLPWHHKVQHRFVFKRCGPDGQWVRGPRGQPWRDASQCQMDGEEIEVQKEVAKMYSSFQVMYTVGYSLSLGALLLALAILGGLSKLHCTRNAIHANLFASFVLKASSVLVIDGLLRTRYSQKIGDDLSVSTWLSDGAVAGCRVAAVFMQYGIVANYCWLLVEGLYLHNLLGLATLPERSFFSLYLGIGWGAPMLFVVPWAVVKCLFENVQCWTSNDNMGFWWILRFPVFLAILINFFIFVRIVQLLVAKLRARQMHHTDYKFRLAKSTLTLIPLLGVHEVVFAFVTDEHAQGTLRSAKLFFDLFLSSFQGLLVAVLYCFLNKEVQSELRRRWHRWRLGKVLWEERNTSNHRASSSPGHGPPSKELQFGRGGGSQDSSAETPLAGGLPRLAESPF
The experiment can be described thus: [125I]-Glucagon binding (SPA), human Gcg receptor. As to conditions: read-out: hGLcgR Ki, nM (SEM, n). Put shortly:
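Crude membranes from cells expressing the receptor, prepared by hypotonic lysis in 50 mM Tris HCl pH 7.5 with protease inhibitors, homogenization and differential centrifugation, were used in a WGA-bead SPA. Binding buffer: 25 mM HEPES pH 7.4, 2.5 mM CaCl2, 1 mM MgCl2, bacitracin, Tween-20.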

Experiment [1] deals with human GLP-1 receptor (GLP-1R) (Homo sapiens, UniProt P43220). The experiment can be described thus: cAMP pharmacological functional assay in presence of casein, hGLP-1R. The class given is cell-based. As to conditions: HEK293 cells expressing hGLP-1R, 0.1% Casein, geometric mean; read-out: hGLP1R cAMP Rel EC50 nM (SEM, n).
Sequence of human GLP-1 receptor (GLP-1R) (P43220 24-463): as the sequence (P43220 24-463) above
Experiment [2] addresses T2, gastric inhibitory peptide receptor (GIPR) (Homo sapiens, UniProt P48546).
T2 sequence (P48546 22-466): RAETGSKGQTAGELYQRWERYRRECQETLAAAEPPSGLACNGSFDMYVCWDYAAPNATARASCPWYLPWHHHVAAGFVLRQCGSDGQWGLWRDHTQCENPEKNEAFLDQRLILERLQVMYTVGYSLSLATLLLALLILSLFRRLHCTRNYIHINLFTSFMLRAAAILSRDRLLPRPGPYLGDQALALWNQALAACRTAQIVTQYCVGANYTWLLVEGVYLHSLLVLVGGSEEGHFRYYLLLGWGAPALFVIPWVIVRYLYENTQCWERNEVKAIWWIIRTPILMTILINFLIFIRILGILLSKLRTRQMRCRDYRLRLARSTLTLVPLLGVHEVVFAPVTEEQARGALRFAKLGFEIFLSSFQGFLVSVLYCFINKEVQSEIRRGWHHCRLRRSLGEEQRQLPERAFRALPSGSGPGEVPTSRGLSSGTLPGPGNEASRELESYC
The experiment can be described thus: cAMP pharmacological functional assay in presence of casein, hGIPR. Format: cell-based. As to conditions: HEK293 cells expressing hGIPR, 0.1% Casein, geometric mean; read-out: hGIPR cAMP Rel EC50 nM (SEM, n).

Another experiment has as its target T3, human GIP receptor (Homo sapiens, UniProt P48546).
T3 construct: expressed in transfected cells; crude membranes
T3 sequence (P48546 22-466): T2 sequence (P48546 22-466)
The experiment can be described thus: [125I]-GIP binding (SPA), human GIP receptor. Particulars: read-out: hGIPR Ki, nM (SEM, n).

For the compound `CC[C@H](C)[C@H](NC(=O)[C@H](CC(C)C)NC(=O)[C@H](Cc1ccc(O)cc1)NC(=O)[C@H](CCC(=O)O)NC(=O)[C@@H](NC(=O)[C@H](Cc1ccccc1)NC(=O)[C@H](CC(=O)O)NC(=O)C(C)(C)NC(=O)[C@H](CCC(N)=O)NC(=O)[C@H](C)NC(=O)[C@H](CCCCNC(=O)COCCOCCNC(=O)COCCOCCNC(=O)CC[C@H](NC(=O)CCCCCCCCCCCCCCCCC(=O)O)C(=O)O)NC(=O)[C@H](CCCCN)NC(=O)[C@H](CC(=O)O)NC(=O)[C@H](CC(C)C)NC(=O)[C@H](CC(C)C)NC(=O)[C@@H](NC(=O)[C@H](CO)NC(=O)[C@H](Cc1ccc(O)cc1)NC(=O)[C@H](CC(=O)O)NC(=O)[C@H](CO)NC(=O)[C@@H](NC(=O)[C@H](Cc1ccccc1)NC(=O)[C@@H](NC(=O)CNC(=O)[C@H](CCC(=O)O)NC(=O)C(C)(C)NC(=O)[C@@H](N)Cc1ccc(O)cc1)[C@@H](C)O)[C@@H](C)O)[C@@H](C)CC)[C@@H](C)CC)C(=O)N[C@@H](CCC(=O)O)C(=O)NCC(=O)NCC(=O)N1CCC[C@H]1C(=O)N[C@@H](CO)C(=O)N[C@@H](CO)C(=O)NCC(N)=O` [Example 320] (H-Y[Aib]EGTFTSDYSILLDKK([AEEA-AEEA-γGlu-C18 diacid])AQ[Aib]DFIEYLIEGGPSSG-NH2; N-terminus assumed), the inhibition constant Ki was 5.17 nM on human GLP-1R, > 1040 nM on human Gcg receptor and 0.136 nM at human GIP receptor. Also, the EC50 in experiment [1] worked out at 0.397 nM; in experiment [2] it was 0.161 nM.

With `CC[C@H](C)[C@H](NC(=O)[C@H](CC(C)C)NC(=O)[C@H](Cc1ccc(O)cc1)NC(=O)[C@H](CCC(=O)O)NC(=O)[C@@H](NC(=O)[C@H](Cc1ccccc1)NC(=O)[C@@H](NC(=O)C(C)(C)NC(=O)[C@H](CCC(N)=O)NC(=O)[C@H](C)NC(=O)[C@H](CCCCNC(=O)COCCOCCNC(=O)COCCOCCNC(=O)CC[C@H](NC(=O)CCCCCCCCCCCCCCCCC(=O)O)C(=O)O)NC(=O)[C@H](CCCCN)NC(=O)[C@H](CC(=O)O)NC(=O)[C@H](CC(C)C)NC(=O)[C@H](CC(C)C)NC(=O)[C@@H](NC(=O)[C@H](CO)NC(=O)[C@H](Cc1ccc(O)cc1)NC(=O)[C@H](CC(=O)O)NC(=O)[C@H](CO)NC(=O)[C@@H](NC(=O)[C@H](Cc1ccccc1)NC(=O)[C@@H](NC(=O)CNC(=O)[C@H](CCC(=O)O)NC(=O)C(C)(C)NC(=O)[C@@H](N)Cc1ccc(O)cc1)[C@@H](C)O)[C@@H](C)O)[C@@H](C)CC)[C@@H](C)O)[C@@H](C)CC)C(=O)N[C@@H](CCC(=O)O)C(=O)NCC(=O)NCC(=O)N1CCC[C@H]1C(=O)N[C@@H](CO)C(=O)N[C@@H](CO)C(=O)NCC(N)=O` [Example 321] (H-Y[Aib]EGTFTSDYSILLDKK([AEEA-AEEA-γGlu-C18 diacid])AQ[Aib]TFIEYLIEGGPSSG-NH2), the values for the Ki at human GLP-1R, at human Gcg receptor and on human GIP receptor were 4.2 nM, 770 nM and 0.064 nM, respectively. The half-maximal effective concentration (EC50) in experiment [1] is 0.204 nM; in experiment [2], 0.0752 nM.
